Patent US20070270421A1, “Novel pyridine Derivative and Pyrimidine Derivative (1)” (priority 2004, published 2007)
pIC50: −log10 of the molar value.

The molecules below were run against T1, HGFR (His6-HGFR cytoplasmic domain) (Homo sapiens, UniProt P08581) (assay: Inhibitory activity against HGFR tyrosine kinase activity (HTRF)). Details: biotin-poly(GT), ATP, 30° C. 10 min, read-out: IC50 (concentration necessary to inhibit HGFR kinase activity by 50%).
T1 construct: made in house; host or cells: Spodoptera frugiperda Sf9 insect cells (baculovirus, pFastBac-HT)
Type: biochemical
Description: The cytoplasmic domain of HGFR (Genbank Accession No. J02958) is a 1.3 kb DNA fragment beginning with Lys974 and including a stop codon, and described by Park et al. (Proc. Natl. Acad. Sci. U.S.A. 84(18), 6379-6383, 1987). The DNA fragment was isolated from the human placental cDNA library (purchased from Clontech) by PCR (TaKaRa Ex Taq™ Kit, purchased from TaKaRa) using two kinds of primers (SEQ ID NO: 1, 5′-[…]-3′ and SEQ ID NO: 2, 5′-[…]-3′, purchased from Invitrogen). The DNA fragment was cloned into a baculovirus transplace vector (pFastBac™-HT (purchased from GIBCO BRL)) to produce a recombinant construct. The construct was transfected into insect cells (Spodoptera frugiperda 9 (Sf9)) to produce a solution of HGFR transfected baculovirus (preparation of a recombinant baculovirus can be found in the standard text (Bac-to-Bac Baculovirus Expression System (GIBCO BRL)). The cloning of the other receptor tyrosine kinases and preparation of the recombinant baculovirus solutions were performed using a cytoplasmic fragment starting from Lys791 (VEGFR2, Genbank Accession No. L04947), a cytoplasmic fragment starting from Lys398 (FGFR1, Genbank Accession No. X52833) and a cytoplasmic fragment starting from Lys558 (PDGFRβ, Genbank Accession No. M21616) in stead of HGFR in the above method. EGFR was purchased from Sigma (Production No. E-2645).
To the suspension of Sf9 cells (3×10^8 cells) in SF-900II medium (purchased from Invitrogen) containing 2% FBS was added a solution of HGFR transfected baculovirus above (4 ml), followed by a shaking culture at 27° C. for 48 hrs. The cells infected with the HGFR transfected baculovirus were centrifuged at 1,000 rpm, 4° C. for 5 min to remove the supernatant. The precipitated infected cells were suspended in 80 ml of ice-cold PBS, and centrifuged at 1,000 rpm, 4° C. for 5 min to remove the supernatant. The precipitated infected cells were suspended in 40 ml of ice-cold Lysis Buffer (50 mM Tris-HCl (pH 8.5), 5 mM 2-mercaptoethanol, 100 mM KCl, 1 mM PMSF and 1% (v/v) NP-40). The suspension was centrifuged at 12,000 rpm, 4° C. for 30 min to provide a supernatant.
The supernatant was loaded onto an Ni-NTA agarose column (3 ml, purchased from Qiagen) equilibrated with 30 ml of Buffer A (20 mM Tris-HCl (pH 8.5), 5 mM 2-mercaptoethanol, 500 mM KCl, 20 mM imidazole and 10% (v/v) glycerol). The column was washed with 30 ml of Buffer A, 6 ml of Buffer B (20 mM Tris-HCl (pH 8.5), 5 mM 2-mercaptoethanol, 1 M KCl, and 10% (v/v) glycerol) and 6 ml of Buffer A in this order. Then, the column was eluted with 6 ml of Buffer C (20 mM Tris-HCl (pH 8.5), 5 mM 2-mercaptoethanol, 100 mM KCl, 100 mM imidazole, and 10% (v/v) glycerol) to provide a fraction. The fraction was entrapped in a dialysis membrane (purchased from Spectrum Laboratories), dialyzed at 4° C. overnight with 1 L of dialysis buffer (20 mM Tris-HCl (pH 7.5), 10% (v/v) glycerol, 1 mM dithiothreitol, 0.1 mM Na3VO4 and 0.1 mM EGTA), and stored at −80° C. until used. An aliquot of the dialyzed fraction was subjected to SDS electrophoresis, and then a recombinant protein (His6-HGFR, the HGFR cytoplasmic domain fused with six histidine at the N terminus) detected at a molecular weight of about 60 kDa when stained with Coomassie Brilliant Blue, was determined with regard to protein content using BSA (purchased from Sigma) as a standard. The VEGFR2 cytoplasmic domain, the FGFR1 cytoplasmic domain, and the PDGFRβ cytoplasmic domain were fused with six histidine at the N terminus by the similar method to produce respective recombinant proteins (His6-VEGFR2, His6-FGFR1, and His6-PDGFRβ). […]

T1 sequence (P08581 956-1390 limits assumed): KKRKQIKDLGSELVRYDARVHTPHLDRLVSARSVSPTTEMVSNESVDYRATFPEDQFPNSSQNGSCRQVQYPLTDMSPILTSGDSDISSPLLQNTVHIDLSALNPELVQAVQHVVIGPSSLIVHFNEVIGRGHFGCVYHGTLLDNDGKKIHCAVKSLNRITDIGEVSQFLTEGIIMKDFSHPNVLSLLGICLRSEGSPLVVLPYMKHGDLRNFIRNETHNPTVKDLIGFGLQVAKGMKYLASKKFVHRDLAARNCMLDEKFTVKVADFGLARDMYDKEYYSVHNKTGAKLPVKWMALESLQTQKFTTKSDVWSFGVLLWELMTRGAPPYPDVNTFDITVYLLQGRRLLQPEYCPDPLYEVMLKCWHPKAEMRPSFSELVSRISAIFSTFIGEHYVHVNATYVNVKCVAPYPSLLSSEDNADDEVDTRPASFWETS

Row | Structure (SMILES) | pIC50
1 | Cc1cc(Oc2ccnc(NC(=O)N(C)C)c2)ccc1NC(=O)CC(=O)Nc1ccc(F)cc1 [Example 86, N-{4-[2-(3,3-Dimethylureido)pyridin-4-yloxy]-2-methylphenyl}-N′-(4-fluorophenyl)malonamide] | 7.26
2 | O=C(Cc1ccccc1)NC(=S)Nc1ccc(Oc2ccnc(NC(=O)N3CCC3)c2)cc1Cl [Example 100, Azetidine-1-carboxylic acid {4-[3-chloro-4-(3-phenylacetylthioureido)phenoxy]pyridin-2-yl}amide] | 6.70
3 | CN(C)CCN1CCC(N(C)C(=O)Nc2cc(Oc3ccc(NC(=S)NC(=O)Cc4ccc(F)cc4)cc3F)ccn2)CC1 [Example 224, 1-[1-(2-Dimethylaminoethyl)piperidin-4-yl]-3-[4-(2-fluoro-4-{3-[2-(4-fluorophenyl)acetyl]thioureido}phenoxy)pyridin-2-yl]-1-methylurea] | 7.06
4 | O=C(CC(=O)Nc1ccc(Oc2ccnc(NC(=O)N3CCC(N4CCCCC4)CC3)c2)cc1F)Nc1ccc(F)cc1 [Example 78, N-(4-Fluorophenyl)-N′-{2-fluoro-4-[({[4-(piperidin-1-yl)piperidin-1-yl]carbonyl}amino)pyridin-4-yloxy]phenyl}malonamide] | 6.89
5 | CC(=O)Nc1cc(Oc2ccc(NC(=O)CC(=O)Nc3ccc(F)cc3)c(F)c2)ccn1 [Example 74, N-(4-Fluorophenyl)-N′-[4-(2-acetylaminopyridin-4-yloxy)-2-fluorophenyl]malonamide] | 7.48
6 | CN1CCC(N2CCN(C(=O)Nc3cc(Oc4ccc(NC(=S)NC(=O)Cc5ccc(F)cc5)cc4F)ncn3)CC2)CC1 [Example 193, 4-(2-Fluoro-4-{3-[2-(4-fluorophenyl)acetyl]thioureido}phenoxy)-6-{[4-(1-methylpiperidin-4-yl)piperazin-1-yl]carbonylamino}pyrimidine] | 7.28
7 | CN(C)CCN1CCC(N(C)C(=O)Nc2cc(Oc3ccc(NC(=S)NC(=O)Cc4ccc(F)cc4)cc3)ccn2)CC1 [Example 194, 1-[1-(2-Dimethylaminoethyl)piperidin-4-yl]-3-[4-(4-{3-[2-(4-fluorophenyl)acetyl]thioureido}phenoxy)pyridin-2-yl]-1-methylurea] | 7.21
8 | CN(C)C1CN(C2CCN(C(=O)Nc3cc(Oc4ccc(NC(=S)NC(=O)Cc5ccc(F)cc5)c(F)c4)ccn3)CC2)C1 [Example 189, 4-[3-(Dimethylamino)azetidin-1-yl]piperidine-1-carboxylic acid [4-(3-fluoro-4-{3-[2-(4-fluorophenyl)acetyl]thioureido}phenoxy)pyridin-2-yl]amide] | 6.96
9 | CC(=O)N1CCC(N(C)C(=O)Nc2cc(Oc3ccc(NC(=S)NC(=O)Cc4ccc(F)cc4)cc3F)ccn2)CC1 [Example 301, 1-(1-Acetylpiperidin-4-yl)-3-[4-(2-fluoro-4-{3-[2-(4-fluorophenyl)acetyl]thioureido}phenoxy)pyridin-2-yl]-1-methylurea] | 7.55
10 | CN(C)[C@H]1CCN(C(=O)Nc2cc(Oc3ccc(NC(=S)NC(=O)Cc4ccc(F)cc4)cc3F)ncn2)C1 [Example 254, 4-{[(3S)-3-Dimethylaminopyrrolidin-1-yl]carbonylamino}-6-(2-fluoro-4-{3-[2-(4-fluorophenyl)acetyl]thioureido}phenoxy)pyrimidine] | 7.08

Now from value to molecule:

Row | pIC50 | Structure (SMILES)
11 | 7.00 | CN1CCC(N2CCN(C(=O)Nc3cc(Oc4ccc(NC(=O)NC(=O)Cc5ccccc5)cc4F)ccn3)CC2)CC1 [Example 341, 4-{2-Fluoro-4-[3-(2-phenylacetyl)ureido]phenoxy}-2-{[4-(1-methylpiperidin-4-yl)piperazin-1-yl]carbonylamino}pyridine]
12 | 7.11 | CN(C)C1CN(C2CCN(C(=O)Nc3cc(Oc4ccc(NC(=S)NC(=O)Cc5ccccc5)cc4F)ccn3)CC2)C1 [Example 373, 4-(3-Dimethylaminoazetidin-1-yl)piperidine-1-carboxylic acid {4-[2-fluoro-4-(3-phenylacetylthioureido)phenoxy]pyridin-2-yl}amide]
13 | 6.96 | CN(C)C[C@@H]1CCCN(C(=O)Nc2cc(Oc3ccc(NC(=S)NC(=O)Cc4ccccc4)cc3F)ccn2)C1 [Example 335, (3S)-3-Dimethylaminomethylpiperidine-1-carboxylic acid {4-[2-fluoro-4-(3-phenylacetylthioureido)phenoxy]pyridin-2-yl}amide]
14 | 7.19 | CN1CC(N2CCN(C(=O)Nc3cc(Oc4ccc(NC(=O)NC(=O)Cc5ccc(F)cc5)cc4)ccn3)CC2)C1 [Example 376, 4-(1-Methylazetidin-3-yl)piperazine-1-carboxylic acid [4-(4-{3-[2-(4-fluorophenyl)acetyl]ureido}phenoxy)pyridin-2-yl]amide]
15 | 7.19 | CN1CCC(N2CCN(C(=O)Nc3cc(Oc4ccc(NC(=S)NC(=O)Cc5ccc(F)cc5)cc4)ccn3)CC2)CC1 [Example 329, 4-(4-{3-[2-(4-Fluorophenyl)acetyl]thioureido}phenoxy)-2-{[4-(1-methylpiperidin-4-yl)piperazin-1-yl]carbonylamino}pyridine]
16 | 7.32 | CN(C)CC1CCN(C(=O)Nc2cc(Oc3ccc(NC(=S)NC(=O)Cc4ccccc4)cc3F)ccn2)CC1 [Example 311, 2-{[4-(Dimethylaminomethyl)piperidin-1-yl]carbonylamino}-4-(2-fluoro-4-{3-[2-(phenyl)acetyl]thioureido}phenoxy)pyridine]
17 | 7.37 | CN1CCC[C@H](N(C)C(=O)Nc2cc(Oc3ccc(NC(=S)NC(=O)Cc4ccc(F)cc4)cc3F)ncn2)C1 [Example 322, 3-[6-(2-Fluoro-4-{3-[2-(4-fluorophenyl)acetyl]thioureido}phenoxy)pyrimidin-4-yl]-1-methyl-1-[(3S)-1-methylpiperidin-3-yl]urea]
18 | 7.33 | O=C(Cc1ccc(F)cc1)NC(=S)Nc1ccc(Oc2ccnc(NC(=O)N3CCN(CCN4CCC4)CC3)c2)cc1 [Example 398, 4-[2-(Azetidin-1-yl)ethyl]piperazine-1-carboxylic acid [4-(4-{3-[2-(4-fluorophenyl)acetyl]thioureido}phenoxy)pyridin-2-yl]amide]
19 | 7.26 | O=C(Cc1ccc(F)cc1)NC(=S)Nc1ccc(Oc2cc(NC(=O)N3CCC(CN4CCC4)CC3)ncn2)c(F)c1 [Example 392, 4-(Azetidin-1-ylmethyl)piperidine-1-carboxylic acid [6-(2-fluoro-4-{3-[2-(4-fluorophenyl)acetyl]thioureido}phenoxy)pyrimidin-4-yl]amide]
20 | 7.08 | CN1CC(N2CCC(N(C)C(=O)Nc3cc(Oc4ccc(NC(=S)NC(=O)Cc5ccc(F)cc5)cc4)ccn3)CC2)C1 [Example 331, 3-(4-{4-[3-(4-Fluorophenyl)acetylthioureido]phenoxy}pyridin-2-yl)-1-methyl-1-[1-(1-methylazetidin-3-yl)piperidin-4-yl]urea]
21 | 6.82 | CN1CC(N2CCN(C(=O)Nc3cc(Oc4ccc(NC(=S)NC(=O)Cc5ccc(F)cc5)cc4)ccn3)CC2)C1 [Example 337, 4-(1-Methylazetidin-3-yl)piperazine-1-carboxylic acid [4-(4-{3-[2-(4-fluorophenyl)acetyl]thioureido}phenoxy)pyridin-2-yl]amide]
